{"source": "PubChem BioAssay AID1745844", "about": "(Carcinogenic Potency Database (CPDB), 2022)", "system": "rodent lifetime carcinogenesis bioassay, tumor incidence TD50", "experiment": "chronic cancer bioassays in animals – CPDB, compiled studies (AID 1745844)", "note": "Calls of active or inactive are those of the source. No rule for the calls is given here.", "data": [{"smiles": "CCN(N=O)C(=O)NCC(C)=O", "values": [{"measurement": "TD50", "setting": "hamster, strain Syrian Golden, females, by gavage, site: forestomach, lesion: carcinoma, dosed 30 weeks, study length 85 weeks", "result": 2.19, "unit": "mg/kg/day"}, {"measurement": "TD50", "setting": "hamster, strain Syrian Golden, females, by gavage, site: forestomach, lesion: several types, types named in the paper, dosed 30 weeks, study length 85 weeks", "result": 0.983, "unit": "mg/kg/day"}, {"measurement": "TD50", "setting": "hamster, strain Syrian Golden, females, by gavage, site: spleen, lesion: all vascular tumors, dosed 30 weeks, study length 85 weeks", "result": 0.394, "unit": "mg/kg/day"}, {"measurement": "TD50", "setting": "hamster, strain Syrian Golden, males, by gavage, site: forestomach, lesion: carcinoma, dosed 30 weeks, study length 85 weeks", "result": 1.92, "unit": "mg/kg/day"}, {"measurement": "TD50", "setting": "hamster, strain Syrian Golden, males, by gavage, site: forestomach, lesion: several types, types named in the paper, dosed 30 weeks, study length 85 weeks", "result": 0.506, "unit": "mg/kg/day"}, {"measurement": "TD50", "setting": "hamster, strain Syrian Golden, males, by gavage, site: liver, lesion: cholangioma, dosed 30 weeks, study length 85 weeks", "result": 1.1, "unit": "mg/kg/day"}, {"measurement": "TD50", "setting": "hamster, strain Syrian Golden, males, by gavage, site: spleen, lesion: hemangiosarcoma, dosed 30 weeks, study length 85 weeks", "result": 0.865, "unit": "mg/kg/day"}, {"measurement": "TD50", "setting": "rat, strain Fischer 344, females, by gavage, site: lung, lesion: one or several types, types not named, dosed 30 weeks, study length 104 weeks", "result": 0.873, "unit": "mg/kg/day"}, {"measurement": "TD50", "setting": "rat, strain Fischer 344, females, by gavage, site: mammary tissue, wider than the gland, lesion: carcinoma, dosed 30 weeks, study length 104 weeks", "result": 0.192, "unit": "mg/kg/day"}, {"measurement": "TD50", "setting": "rat, strain Fischer 344, females, by gavage, site: nervous system, lesion: one or several types, types not named, dosed 30 weeks, study length 104 weeks", "result": 1.66, "unit": "mg/kg/day"}, {"measurement": "TD50", "setting": "rat, strain Fischer 344, females, by gavage, site: uterus, lesion: one or several types, types not named, dosed 30 weeks, study length 104 weeks", "result": 1.84, "unit": "mg/kg/day"}, {"measurement": "TD50", "setting": "rat, strain Fischer 344, females, in drinking water, site: colon, lesion: one or several types, types not named, dosed 30 weeks, study length 104 weeks", "result": 1.13, "unit": "mg/kg/day"}, {"measurement": "TD50", "setting": "rat, strain Fischer 344, females, in drinking water, site: liver, lesion: one or several types, types not named, dosed 30 weeks, study length 104 weeks", "result": 5.53, "unit": "mg/kg/day"}, {"measurement": "TD50", "setting": "rat, strain Fischer 344, females, in drinking water, site: lung, lesion: one or several types, types not named, dosed 30 weeks, study length 104 weeks", "result": 0.885, "unit": "mg/kg/day"}, {"measurement": "TD50", "setting": "rat, strain Fischer 344, females, in drinking water, site: mammary tissue, wider than the gland, lesion: carcinoma, dosed 30 weeks, study length 104 weeks", "result": 0.748, "unit": "mg/kg/day"}, {"measurement": "TD50", "setting": "rat, strain Fischer 344, females, in drinking water, site: nervous system, lesion: one or several types, types not named, dosed 30 weeks, study length 104 weeks", "result": 0.605, "unit": "mg/kg/day"}, {"measurement": "TD50", "setting": "rat, strain Fischer 344, females, in drinking water, site: skin, lesion: one or several types, types not named, dosed 30 weeks, study length 104 weeks", "result": 1.79, "unit": "mg/kg/day"}, {"measurement": "TD50", "setting": "rat, strain Fischer 344, females, in drinking water, site: thyroid gland, lesion: follicular-cell tumor, dosed 30 weeks, study length 104 weeks", "result": 0.804, "unit": "mg/kg/day"}, {"measurement": "TD50", "setting": "rat, strain Fischer 344, females, in drinking water, site: uterus, lesion: one or several types, types not named, dosed 30 weeks, study length 104 weeks", "result": 1.49, "unit": "mg/kg/day"}, {"measurement": "TD50", "setting": "rat, strain Fischer 344, males, by gavage, site: Zymbal's gland, lesion: one or several types, types not named, dosed 30 weeks, study length 104 weeks", "result": 0.499, "unit": "mg/kg/day"}, {"measurement": "TD50", "setting": "rat, strain Fischer 344, males, by gavage, site: colon, lesion: one or several types, types not named, dosed 30 weeks, study length 104 weeks", "result": 0.562, "unit": "mg/kg/day"}, {"measurement": "TD50", "setting": "rat, strain Fischer 344, males, by gavage, site: forestomach, lesion: one or several types, types not named, dosed 30 weeks, study length 104 weeks", "result": 0.861, "unit": "mg/kg/day"}, {"measurement": "TD50", "setting": "rat, strain Fischer 344, males, by gavage, site: liver, lesion: one or several types, types not named, dosed 30 weeks, study length 104 weeks", "result": 3.39, "unit": "mg/kg/day"}, {"measurement": "carcinogen call", "setting": "rat, strain Fischer 344, males, by gavage, site: lung, lesion: one or several types, types not named, dosed 30 weeks, study length 104 weeks", "result": "positive"}, {"measurement": "TD50", "setting": "rat, strain Fischer 344, males, by gavage, site: nervous system, lesion: one or several types, types not named, dosed 30 weeks, study length 104 weeks", "result": 1.37, "unit": "mg/kg/day"}, {"measurement": "TD50", "setting": "rat, strain Fischer 344, males, by gavage, site: thyroid gland, lesion: follicular-cell tumor, dosed 30 weeks, study length 104 weeks", "result": 0.767, "unit": "mg/kg/day"}, {"measurement": "TD50", "setting": "rat, strain Fischer 344, males, by gavage, site: tunica vaginalis, lesion: mesothelioma, dosed 30 weeks, study length 104 weeks", "result": 0.225, "unit": "mg/kg/day"}, {"measurement": "TD50", "setting": "rat, strain Fischer 344, males, in drinking water, site: Zymbal's gland, lesion: one or several types, types not named, dosed 30 weeks, study length 104 weeks", "result": 1.13, "unit": "mg/kg/day"}, {"measurement": "TD50", "setting": "rat, strain Fischer 344, males, in drinking water, site: colon, lesion: one or several types, types not named, dosed 30 weeks, study length 104 weeks", "result": 0.524, "unit": "mg/kg/day"}, {"measurement": "TD50", "setting": "rat, strain Fischer 344, males, in drinking water, site: lung, lesion: one or several types, types not named, dosed 30 weeks, study length 104 weeks", "result": 0.231, "unit": "mg/kg/day"}, {"measurement": "TD50", "setting": "rat, strain Fischer 344, males, in drinking water, site: nervous system, lesion: one or several types, types not named, dosed 30 weeks, study length 104 weeks", "result": 0.127, "unit": "mg/kg/day"}, {"measurement": "TD50", "setting": "rat, strain Fischer 344, males, in drinking water, site: skin, lesion: one or several types, types not named, dosed 30 weeks, study length 104 weeks", "result": 0.982, "unit": "mg/kg/day"}, {"measurement": "TD50", "setting": "rat, strain Fischer 344, males, in drinking water, site: tunica vaginalis, lesion: mesothelioma, dosed 30 weeks, study length 104 weeks", "result": 0.264, "unit": "mg/kg/day"}]}, {"smiles": "O=[N+]([O-])c1ccc(-c2cscn2)o1", "values": [{"measurement": "TD50", "setting": "rat, strain Sprague-Dawley albino, females, in feed, site: any site (literature study), lesion: several types, types named in the paper, dosed 46 weeks, study length 68 weeks", "result": 7.68, "unit": "mg/kg/day"}, {"measurement": "TD50", "setting": "rat, strain Sprague-Dawley albino, females, in feed, site: forestomach, lesion: squamous-cell carcinoma, dosed 46 weeks, study length 68 weeks", "result": 19.5, "unit": "mg/kg/day"}, {"measurement": "TD50", "setting": "rat, strain Sprague-Dawley albino, females, in feed, site: mammary gland, lesion: fibroadenoma, dosed 46 weeks, study length 68 weeks", "result": 15.6, "unit": "mg/kg/day"}]}, {"smiles": "Nc1ccc(-c2ccc(N)c(Cl)c2)cc1Cl", "values": [{"measurement": "carcinogen call", "setting": "dog, strain Beagle, females, given by capsule, site: liver, lesion: several types, types named in the paper, dosed 369 weeks, study length 370 weeks", "result": "positive"}, {"measurement": "carcinogen call", "setting": "dog, strain Beagle, females, given by capsule, site: urinary bladder, lesion: several types, types named in the paper, dosed 369 weeks, study length 370 weeks", "result": "positive"}, {"measurement": "carcinogen call", "setting": "mouse, strain ICR/Jcl, males, in feed, site: liver, lesion: hepatoma, dosed 52 weeks, study length 52 weeks", "result": "positive"}, {"measurement": "carcinogen call", "setting": "rat, strain Charles River CD (Sprague-Dawley), females, in feed, site: liver, lesion: one or several types, types not named, dosed 69 weeks, study length 69 weeks", "result": "negative (inactive)"}, {"measurement": "TD50", "setting": "rat, strain Charles River CD (Sprague-Dawley), females, in feed, site: mammary gland, lesion: adenocarcinoma, dosed 69 weeks, study length 69 weeks", "result": 18.3, "unit": "mg/kg/day"}, {"measurement": "TD50", "setting": "rat, strain Charles River CD (Sprague-Dawley), males, in feed, site: Zymbal's gland, lesion: squamous-cell carcinoma, dosed 69 weeks, study length 69 weeks", "result": 60.1, "unit": "mg/kg/day"}, {"measurement": "TD50", "setting": "rat, strain Charles River CD (Sprague-Dawley), males, in feed, site: all sites, lesion: granulocytic leukemia, dosed 69 weeks, study length 69 weeks", "result": 66.2, "unit": "mg/kg/day"}, {"measurement": "carcinogen call", "setting": "rat, strain Charles River CD (Sprague-Dawley), males, in feed, site: liver, lesion: one or several types, types not named, dosed 69 weeks, study length 69 weeks", "result": "negative (inactive)"}, {"measurement": "TD50", "setting": "rat, strain Charles River CD (Sprague-Dawley), males, in feed, site: mammary gland, lesion: adenocarcinoma, dosed 69 weeks, study length 69 weeks", "result": 69.6, "unit": "mg/kg/day"}]}]}
